Results from the Kinase Knowledgebase extract (Sharma et al. 2016).

Target: PIK3CB;PIK3CG;PIK3CD;PIK3CA (human) (UniProt P48736)
Experiment: Enzyme Assay

With `O=C(c1nn(-c2ccc(CN3CCCCC3)nc2)c2c1CS(=O)(=O)c1ccccc1-2)N1CCOCC1` the IC50 was 370 nM.

With `O=C(c1nn(-c2ccc(CN3CCCC(F)(F)C3)cc2)c2c1CS(=O)(=O)c1ccccc1-2)N1CCOCC1` the IC50 was 355 nM.

With `O=C(c1nn(C2CCCN(CCN3CC[C@H](F)C3)C2)c2c1CS(=O)(=O)c1ccccc1-2)N1CCOCC1` (some centres undefined) the IC50 was 72 nM.

`O=C(c1nn(C2CCN(CCN3CC[C@H](F)C3)C2)c2c1CS(=O)(=O)c1ccccc1-2)N1CCOCC1` (some centres undefined) was tested, and the IC50 was 192 nM.

For `O=C(c1nn(C2CCCN(CCCn3cccc3)C2)c2c1CS(=O)(=O)c1ccccc1-2)N1CCOCC1` (centres undefined), the IC50 was 90 nM.

`CC(C)Cn1nc(C(=O)N2CCOCC2)c2c1-c1ccccc1S(=O)(=O)C2` gave an IC50 of 960 nM.

In the case of `O=C(c1nn([C@@H]2CCCN(CC3CCOCC3)C2)c2c1CS(=O)(=O)c1ncccc1-2)N1CCOCC1`, the IC50 is reported as 830 nM.

In the case of `CN1CCCC(n2nc(C(=O)N3CCOCC3)c3c2-c2ccccc2S(=O)(=O)C3)C1` (centres undefined), the IC50 is reported as 772 nM.

`O=C(c1nn(-c2cccc(CO)c2)c2c1CS(=O)(=O)c1ccccc1-2)N1CCOCC1` gave an IC50 of 2250 nM.

With `CC(=O)NCCN1CCC[C@H](n2nc(C(=O)N3CCOCC3)c3c2-c2ccccc2S(=O)(=O)C3)C1` the IC50 was 105 nM.

`Cc1nc(CN2CCCC(n3nc(C(=O)N4CCOCC4)c4c3-c3ccccc3S(=O)(=O)C4)C2)no1` (centres undefined) showed an IC50 of 134 nM.

`COc1ccc(-n2nc(C(=O)N3CCOCC3)c3c2-c2ccccc2S(=O)(=O)C3)cn1` was tested, and the IC50 was 2200 nM.

`COCN1c2c(C(=O)N3CCOCC3)nn(-c3ccccc3)c2-c2ccccc2S1(=O)=O` was tested, and the IC50 was 11700 nM.

In the case of `O=C(c1nn(C2CCCN(CCO)C2)c2c1CS(=O)(=O)c1ccccc1-2)N1CCOCC1` (centres undefined), the IC50 is reported as 815 nM.

`O=C(CC1CCCCC1)N1CCC[C@H](n2nc(C(=O)N3CCOCC3)c3c2-c2ccccc2S(=O)(=O)C3)C1` showed an IC50 of 735 nM.

`O=C(c1nn([C@H]2CCCN(CCC3CCOCC3)C2)c2c1CS(=O)(=O)c1c(F)cccc1-2)N1CCOCC1` gave an IC50 of 6 nM.

`COC1CCN(Cc2ccc(-n3nc(C(=O)N4CCOCC4)c4c3-c3ccccc3S(=O)(=O)C4)cc2)CC1` gave an IC50 of 249 nM.

With `O=C(c1cccc(-n2nc(C(=O)N3CCOCC3)c3c2-c2ccccc2S(=O)(=O)C3)c1)N1CCCCC1` the IC50 was 182 nM.

With `CC1CN(Cc2ccc(-n3nc(C(=O)N4CCOCC4)c4c3-c3ccccc3S(=O)(=O)C4)cc2)CCO1` (centres undefined) the IC50 was 105 nM.

`CN1CCCC(Cn2nc(C(=O)N3CCOCC3)c3c2-c2ccccc2S(=O)(=O)C3)C1` (centres undefined) showed an IC50 of 6050 nM.

`O=C(c1nn(C2CCOC2)c2c1CS(=O)(=O)c1ccccc1-2)N1CCOCC1` (centres undefined) showed an IC50 of 890 nM.

Work on `O=C(c1nn(C2CCCCC2)c2c1CS(=O)(=O)c1cc(Br)ccc1-2)N1CCOCC1` yielded an IC50 of 691 nM.

`CC(C)(C)OC(=O)N1CCCC(n2nc(C(=O)N3CCOCC3)c3c2-c2ccccc2S(=O)(=O)C3)C1` (centres undefined) showed an IC50 of 1540 nM.

`O=C(c1nn(-c2cccnc2)c2c1CS(=O)(=O)c1ccccc1-2)N1CCOCC1` was tested, and the IC50 was 1130 nM.

`O=C(c1nn([C@@H]2CCCN(CCC3CCOCC3)C2)c2c1CS(=O)(=O)c1ncccc1-2)N1CCOCC1` gave an IC50 of 99 nM.

`O=C(c1nn(-c2ccccc2)c2c1CS(=O)(=O)c1c(Br)cccc1-2)N1CCOCC1` gave an IC50 of 494 nM.

Work on `O=C(c1nn(C2CCCN(CCC3CCOCC3)C2)c2c1CS(=O)(=O)c1c(Cl)cccc1-2)N1CCOCC1` (centres undefined) yielded an IC50 of 38 nM.

Work on `O=C(c1nn(C2CCCCC2)c2c1CS(=O)(=O)c1ccsc1-2)N1CCOCC1` yielded an IC50 of 212 nM.

Molecule `COC1CN(Cc2cccc(-n3nc(C(=O)N4CCOCC4)c4c3-c3ccccc3S(=O)(=O)C4)c2)C1` has an IC50 of 277 nM.

Work on `CN(C)C(=O)c1ccc2c(c1)-c1c(c(C(=O)N3CCOCC3)nn1-c1ccccc1)CS2(=O)=O` yielded an IC50 of 3730 nM.

With `O=C(c1nn(-c2ccccc2)c2c1CS(=O)(=O)c1sccc1-2)N1CCOCC1` the IC50 was 1700 nM.

For `CC1(C)CN(Cc2ccc(-n3nc(C(=O)N4CCOCC4)c4c3-c3ccccc3S(=O)(=O)C4)cc2)CCO1`, the IC50 was 120 nM.

Molecule `O=C(c1nn(-c2ccccc2)c2c1CS(=O)(=O)c1ccccc1-2)N1CCCOCC1` has an IC50 of 9070 nM.

`O=C(c1cccc(-n2nc(C(=O)N3CCOCC3)c3c2-c2ccccc2S(=O)(=O)C3)c1)N1CCS(=O)(=O)CC1` was tested, and the IC50 was 319 nM.

Molecule `O=C(c1nn(-c2cccc(-c3cccnc3)c2)c2c1CS(=O)(=O)c1ccccc1-2)N1CCOCC1` has an IC50 of 280 nM.

`COCCN1CCC[C@H](n2nc(C(=O)N3CCOCC3)c3c2-c2ccc(OC)cc2S(=O)(=O)C3)C1` gave an IC50 of 93 nM.

`O=C(c1nn(-c2ccc(CN3CCCCC3)cc2)c2c1CS(=O)(=O)c1ccccc1-2)N1CCOCC1` gave an IC50 of 110 nM.

`O=C(c1nn(C2CCN(CCCl)C2)c2c1CS(=O)(=O)c1ccccc1-2)N1CCOCC1` (centres undefined) was tested, and the IC50 was 305 nM.

Work on `O=C(c1nn(C2CCCNC2)c2c1CS(=O)(=O)c1cc(OC(F)(F)F)ccc1-2)N1CCOCC1` (centres undefined) yielded an IC50 of 10500 nM.

`O=C(c1nn([C@H]2CCCN(Cc3ccncc3)C2)c2c1CS(=O)(=O)c1ccccc1-2)N1CCOCC1` showed an IC50 of 45 nM.

For `O=C(c1nn(C2CCCN(CCC(C(F)(F)F)C(F)(F)F)C2)c2c1CS(=O)(=O)c1ccccc1-2)N1CCOCC1` (centres undefined), the IC50 was 679 nM.

For `O=C(c1nn(C2CCCN(CCN3CCOCC3)C2)c2c1CS(=O)(=O)c1c(F)cccc1-2)N1CCOCC1` (centres undefined), the IC50 was 16 nM.

`Cc1ccncc1-n1nc(C(=O)N2CCOCC2)c2c1-c1ccccc1S(=O)(=O)C2` was tested, and the IC50 was 4040 nM.

`Cc1ccccc1-c1ccc(-n2nc(C(=O)N3CCOCC3)c3c2-c2ccccc2S(=O)(=O)C3)cc1` gave an IC50 of 6470 nM.
